Measured values from patent US20260174778A1, “SULFONAMIDE COMPOUND, AND PREPARATION METHOD THEREFOR AND USE THEREOF” (SHANGHAI HENLIUS BIOTECH, INC., priority 2023, published 2026).

System: acetylation level of H3K23 in ZR-75-1 cells
Test: Effect on histone acetilation in ER-positive breast cancer cells (Western blotting)
Assay type: cell-based, human
Details: 5 days of incubation, from 5 μM, Western blot (FIG. 1)
Experimental: Test Example 4: Assay for Effects of Compounds on Histone Acetylation in Estrogen Receptor-Positive Breast Cancer Cells
Assay Method: Western Blotting Method (Immunoblotting Assay)
The effects of the test compounds on the acetylation level of H3K23 in ZR-75-1 cells (Nanjing Cobioer, CBP60402) were assayed. • 1. On day 1, the cells were plated at 400,000 cells/well (2 mL/well) and cultured overnight in an incubator at 37° C. with 5% CO2. • 2. On day 2, compounds were added starting at 5 μM, with a 10-fold serial dilution across a total of 3 concentration gradients, and DMSO was added to the negative control wells. • 3. On day 6, after 5 days of incubation with compounds, protein samples were collected: An ice box, pre-cooled PBS (4° C.), a cell lysis buffer RIPA (Beyotime, P0013B), and a protease inhibitor (100x) (Thermo Scientific™, 87786) were prepared. Then, 120 μL of the cell lysis buffer was added to each well. The mixture was placed on ice for about 15 min. […] Protein quantification by BCA method (Beyotime, P0009) • Standards (8 concentrations) were prepared, and the samples and the standards were added to a 96-well plate. […] The absorbance was then measured using a microplate reader. […]
The next day, the PVDF membrane was taken out and washed (8 min×3) with TBST (with 0.5% Tween 20). […] After the washing, a luminescence solution (Tanon, 180-506) was added for exposure. […]

Row | SMILES | acetylation level of H3K23
1 | COc1ccc2c(c1S(=O)(=O)Nc1noc3cc(Cn4cccn4)c(F)c(OC)c13)OCCO2 [Compound 28, N-(6-((1H-Pyrazol-1-yl)methyl)-5-fluoro-4-methoxybenzo[d]isoxazol-3-yl)-6-methoxy-2,3-dihydrobenzo[b][1,4]dioxine-5-sulfonamide] | significantly reduce the acetylation level of H3K23
2 | COc1ccccc1S(=O)(=O)Nc1noc2cc(Cn3cccn3)cc(OC)c12 [PF-8144, reference compound] | significantly reduce the acetylation level of H3K23
